We go through 27 molecules from patent US20260199351A1, “TRIAZOLE COMPOUNDS, PREPARATION METHODS AND MEDICINAL USES THEREOF” (Jiangsu Hengrui Pharmaceuticals Co., Ltd., priority 2022, published 2026).

The test system of assay [1] is SW48. The experiment in a line: SW48 cell assay. In kind it is cell-based. The settings on record: Homo sapiens.
Assay [2] has as its target T1, WRN helicase (His-WRN527-072) (Homo sapiens, UniProt Q14191).
T1 construct: in-house produced His-WRN527-072 was used; His (N); made in house
The experiment in a line: WRN Helicase Assay (fluorescent forked DNA). It is filed as biochemical. To be noted: 30 min pre-incubation, 60 min reaction at room temperature. Here is the method: To assess the inhibition properties of the invented compounds on WRN helicase activity, a fluorescent assay using forked DNA was set up. In the helicase assay, in-house produced His-WRN527-072 was used. […] 2.5-fold serial dilution of test compounds were prepared for 7 gradient points with DMSO, and then 1.5 μl of each concentration were added to 48.5 μl of assay buffer (25 mM Tris-HCl (pH 8.0), 50 mM NaCl, 2 mM MgCl2, 1 mM DTT, 0.0500 Tween-20, and 2.5 μg/ml BSA) for further dilution. […] Each concentration of the compounds was added as triplicate in the plate. Controls were included in the test to validate the assay. […] Forked DNA and ATP were diluted into 300 nM and 6 mM, respectively, with assay buffer. To initiate the reaction, 5 μl of the dsDNA and ATP solution were added to the assay plate. After 60 minutes room temperature incubation, the plate was transferred to Victor Nivo multimode plate reader (Perkin Elmer, Waltham, MA) and the fluorescence outputs were monitored. GraphPad Prism 9 (GraphPad Software, San Diego, CA) was used to carry out the dose-response curves, deriving IC50s.

T1 sequence (Q14191 527-1072 limits assumed): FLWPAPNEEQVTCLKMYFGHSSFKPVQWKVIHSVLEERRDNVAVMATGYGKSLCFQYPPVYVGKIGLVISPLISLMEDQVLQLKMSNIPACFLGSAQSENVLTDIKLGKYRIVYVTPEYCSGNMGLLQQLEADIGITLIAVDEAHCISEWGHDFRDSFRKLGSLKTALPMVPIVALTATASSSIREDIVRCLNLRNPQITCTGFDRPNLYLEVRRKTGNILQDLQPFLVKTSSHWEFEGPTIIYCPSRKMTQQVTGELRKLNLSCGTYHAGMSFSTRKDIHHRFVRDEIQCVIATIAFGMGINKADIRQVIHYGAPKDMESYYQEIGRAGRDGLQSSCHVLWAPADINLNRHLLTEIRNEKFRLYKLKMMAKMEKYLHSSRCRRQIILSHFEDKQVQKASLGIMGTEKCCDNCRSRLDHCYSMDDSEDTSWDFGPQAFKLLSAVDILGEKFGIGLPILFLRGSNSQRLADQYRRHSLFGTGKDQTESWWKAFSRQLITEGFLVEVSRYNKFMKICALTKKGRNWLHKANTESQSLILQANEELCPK

By IC50 is commonly meant the concentration at which inhibition is half-maximal. For the molecule `CCc1c(N2CC3CC(F)C(C2)N3C(=O)c2ncccc2O)c(=O)n2nc(C3=CCOCC3)nc2n1CC(=O)Nc1ccc(C(F)(F)F)cc1C` (centres unmarked) [Compound 205], the IC50 worked out at 2.37 µM in assay [1] and 0.0109 µM in assay [2].

In the case of `CCc1c(N2CC3CCC(C2)N3C(=O)c2ncccc2O)c(=O)n2nc(C3=CCOCC3)nc2n1CC(=O)Nc1ccc(C(F)(F)F)nc1Cl` [Compound 8], the IC50 was 1.63 µM in assay [1] and 0.0059 µM in assay [2].

Consider `CCc1c(N2CC3CCC(C2)N3C(=O)c2ncnc(C)c2O)c(=O)n2nc(C3=CCOCC3)nc2n1CC(=O)Nc1ccc(C(F)(F)F)nc1Cl` [Compound 15], for which the figures for the IC50 in assay [1] and in assay [2] were 3.49 µM and 0.0092 µM, respectively.

As to `CCc1c(N2CCN(C(=O)c3ncnc(C)c3O)CC2)c(=O)n2nc(C3C4CC(OC)CC43)nc2n1CC(=O)Nc1ccc(C(F)(F)F)cc1Cl` (centres unmarked) [Compound 191, N-(2-chloro-4-(trifluoromethyl)phenyl)-2-(5-ethyl-6-(4-(5-hydroxy-6-methylpyrimidine-4-carbonyl)piperazin-1-yl)-2-(3-methoxybicyclo[3.1.0]hexan-6-yl)-7-oxo-[1,2,4]triazolo[1,5-a]pyrimidin-4(7H)-yl)acetamide], in assay [2], the IC50 amounted to 0.0037 µM.

As for `CCc1c(C2=CCN(C(=O)c3ncnc(C)c3O)CCC2)c(=O)n2nc(C3CCOCC3)nc2n1CC(=O)Nc1ccc(C(F)(F)F)cc1Cl` [Compound 196, N-(2-chloro-4-(trifluoromethyl)phenyl)-2-(5-ethyl-6-(1-(5-hydroxy-6-methylpyrimidine-4-carbonyl)-2,5,6,7-tetrahydro-1H-azepin-4-yl)-7-oxo-2-(tetrahydro-2H-pyran-4-yl)-[1,2,4]triazolo[1,5-a]pyrimidin-4(7H)-yl)acetamide], the IC50 in assay [2] is 1.28 µM.

The molecule `CCc1c(N2C3CC2CN(C(=O)c2ncnc(C)c2O)C3)c(=O)n2nc(C3=CCOCC3)nc2n1CC(=O)Nc1ccc(C(F)(F)F)cc1Cl` [Compound 1] came in with an IC50 in assay [2] of 48 µM.

For the molecule `CCc1c(N2CC3CCC(C2)N3C(=O)c2ncccc2O)c(=O)n2nc(C3=CCN(CC(F)F)CC3)nc2n1CC(=O)Nc1ccc(C(F)(F)F)cc1C` [Compound 203, 2-(2-(1-(2,2-difluoroethyl)-1,2,3,6-tetrahydropyridin-4-yl)-5-ethyl-6-(8-(3-hydroxypicolinoyl)-3,8-diazabicyclo[3.2.1]octan-3-yl)-7-oxo-[1,2,4]triazolo[1,5-a]pyrimidin-4(7H)-yl)-N-(2-methyl-4-(trifluoromethyl)phenyl)acetamide], the IC50 was 0.967 µM in assay [1] and 0.0087 µM in assay [2].

Take `CCc1c(N2CC3CCC(C2)N3C(=O)c2ncccc2O)c(=O)n2nc(C3=CCOCC3)nc2n1CC(=O)Nc1ccc(C(F)(F)F)cc1Cl` [Compound 4]: the IC50 came to 1.35 µM in assay [1] and 0.0045 µM in assay [2].

With `CCc1c(C2=CCN(C(=O)c3ncnc(C)c3O)CCC2)c(=O)n2nc(C3=CCOCC3)nc2n1CC(=O)Nc1ccc(C(F)(F)F)cc1Cl` [Compound 190, N-(2-chloro-4-(trifluoromethyl)phenyl)-2-(2-(3,6-dihydro-2H-pyran-4-yl)-5-ethyl-6-(1-(5-hydroxy-6-methylpyrimidine-4-carbonyl)-2,5,6,7-tetrahydro-1H-azepin-4-yl)-7-oxo-[1,2,4]triazolo[1,5-a]pyrimidin-4(7H)-yl)acetamide], the IC50 stood at 2.24 µM in assay [1] and 0.0052 µM in assay [2].

Take `CCc1c(N2CC3CCC(C2)N3C(=O)c2ncccc2O)c(=O)n2nc(C3=CCOCC3)nc2n1CC(=O)Nc1ccc(OC(F)(F)F)cc1` [Compound 200]: the IC50 came to 7.24 µM in assay [1] and 0.0044 µM in assay [2].

As to `CCc1c(N2CCCN(C(=O)c3ncnc(C)c3O)CC2)c(=O)n2nc(C3=CCOCC3)nc2n1CC(=O)Nc1ccc(C(F)(F)F)cc1Cl` [Compound 19], the IC50 was 0.818 µM in assay [1] and 0.0051 µM in assay [2].

Turning to `CCc1c(N2CC3CCC(C2)N3C(=O)c2ncccc2O)c(=O)n2nc(C3=CCOCC3)nc2n1CC(=O)Nc1ccc(Cl)c(C(F)(F)F)c1` [Compound 199], the IC50 in assay [1] amounted to 3.35 µM; in assay [2], 0.0093 µM.

In the case of `CCc1c(N2CCN(C(=O)c3ncnc(C)c3O)CC2)c(=O)n2nc(C3C4COCC43)nc2n1CC(=O)Nc1ccc(C(F)(F)F)cc1Cl` (centres unmarked) [Compound 192, 2-(2-(3-oxabicyclo[3.1.0]hexan-6-yl)-5-ethyl-6-(4-(5-hydroxy-6-methylpyrimidine-4-carbonyl)piperazin-1-yl)-7-oxo-[1,2,4]triazolo[1,5-a]pyrimidin-4(7H)-yl)-N-(2-chloro-4-(trifluoromethyl)phenyl)acetamide], the IC50 came to 4.19 µM in assay [1] and 0.0084 µM in assay [2].

As for `CCc1c(N2CCC(NC(=O)c3ncnc(C)c3O)C2)c(=O)n2nc(C3=CCOCC3)nc2n1CC(=O)Nc1ccc(C(F)(F)F)cc1C` (centres unmarked) [Compound 23], the IC50 amounted to 1.87 µM in assay [1] and 0.0063 µM in assay [2].

In assay [2], `CCc1c(N2CCN(Cc3cccn(C)c3=O)C(=O)C2)c(=O)n2nc(C3=CCOCC3)nc2n1CC(=O)Nc1ccc(C(F)(F)F)cc1C` [Compound 68] came in with an IC50 of 5 µM. This counts as single-digit micromolar.

For `CCc1c(N2C3CCC2CN(C(=O)c2ncccc2O)C3)c(=O)n2nc(-c3cnn(C)c3)nc2n1CC(=O)Nc1ccc(C(F)(F)F)cc1C` [Compound 207], the IC50 in assay [1] turned out to be 1.14 µM; in assay [2], 0.0051 µM.

As for `CCc1c(N2C3CCC2CN(C(=O)c2ncccc2O)C3)c(=O)n2nc(C3=CCOCC3)nc2n1CC(=O)Nc1ccc(C(F)(F)F)cc1Cl` [Compound 189, N-(2-chloro-4-(trifluoromethyl)phenyl)-2-(2-(3,6-dihydro-2H-pyran-4-yl)-5-ethyl-6-(3-(3-hydroxypicolinoyl)-3,8-diazabicyclo[3.2.1]octan-8-yl)-7-oxo-[1,2,4]triazolo[1,5-a]pyrimidin-4(7H)-yl)acetamide], the IC50 came out at 1.11 µM in assay [1] and 0.0046 µM in assay [2].

Turning to `CCc1c(N2CC3CC(C2)N3C(=O)c2ncnc(C)c2O)c(=O)n2nc(C3=CCOCC3)nc2n1CC(=O)Nc1ccc(C(F)(F)F)cc1C` [Compound 187, 2-(2-(3,6-dihydro-2H-pyran-4-yl)-5-ethyl-6-(6-(5-hydroxy-6-methylpyrimidine-4-carbonyl)-3,6-diazabicyclo[3.1.1]heptan-3-yl)-7-oxo-[1,2,4]triazolo [1,5-a]pyrimidin-4(7H)-yl)-N-(2-methyl-4-(trifluoromethyl)phenyl)acetamide], the IC50 was found to be 4.5 µM in assay [1] and 0.0086 µM in assay [2].

As to `CCc1c(N2CC3CC2CN3C(=O)c2ncnc(C)c2O)c(=O)n2nc(C3=CCOCC3)nc2n1CC(=O)Nc1ccc(C(F)(F)F)cc1Cl` (centres unmarked) [Compound 2], the values for the IC50 in assay [1] and in assay [2] were 5.74 µM and 0.0064 µM, respectively.

Turning to `CCc1c(N2C3CCC2CN(C(=O)c2ncnc(C)c2O)C3)c(=O)n2nc(-c3cnn(C)c3)nc2n1CC(=O)Nc1ccc(C(F)(F)F)cc1C` [Compound 208], the results for the IC50 in assay [1] and in assay [2] were 0.44 µM and 0.0062 µM, respectively.

On to `CCc1c(N2CC3CCC(C2)N3C(=O)c2nccc(Cl)c2O)c(=O)n2nc(C3=CCOCC3)nc2n1CC(=O)Nc1ccc(C(F)(F)F)nc1Cl` [Compound 201], for which the IC50 in assay [1] worked out at 0.802 µM; in assay [2], 0.0073 µM.

On to `CCc1c(N2[C@@H]3CC[C@H]2CN(C(=O)c2ncnc(C)c2O)C3)c(=O)n2nc(C3=CCOCC3)nc2n1CC(=O)Nc1ccc(C(F)(F)F)cc1C` [Compound 17], for which the figures for the IC50 in assay [1] and in assay [2] were 0.183 µM and 0.0035 µM, respectively.

`CCc1c(N2CC3CCC(C2)N3C(=O)c2ncccc2O)c(=O)n2nc(-c3cnn(C)c3)nc2n1CC(=O)Nc1ccc(C(F)(F)F)cc1C` [Compound 204]: the IC50 in assay [1] was 1.79 µM; in assay [2], 0.0071 µM.

As for `CCc1c(N2CCN(C(=O)c3ncccc3O)CC2)c(=O)n2nc(C3=CCOCC3)nc2n1CC(=O)Nc1ccc(OC(F)(F)F)cc1` [Compound 198], the IC50 in assay [1] was determined as 0.129 µM; in assay [2] it was 0.0023 µM.

`CCc1c(N2CC3CCC(C2)N3C(=O)c2ncccc2O)c(=O)n2nc(C3=CCC(OC)CC3)nc2n1CC(=O)Nc1ccc(C(F)(F)F)cc1C` (centres unmarked) [Compound 202, 2-(5-ethyl-6-(8-(3-hydroxypicolinoyl)-3,8-diazabicyclo[3.2.1]octan-3-yl)-2-(4-methoxycyclohex-1-en-1-yl)-7-oxo-[1,2,4]triazolo[1,5-a]pyrimidin-4(7H)-yl)-N-(2-methyl-4-(trifluoromethyl)phenyl)acetamide]: the IC50 in assay [1] was 1.04 µM; in assay [2], 0.007 µM.

With `CCc1c(N2C3CCC2CN(C(=O)c2ncccc2O)C3)c(=O)n2nc(C3=CCOCC3)nc2n1CC(=O)Nc1ccc(C(F)(F)F)cc1C` [Compound 206], the IC50 in assay [1] was found to be 1.14 µM; in assay [2], 0.0036 µM.

On to `CCc1c(N2CCN(C(=O)c3ncccc3O)CC2)c(=O)n2nc(C3=CCOCC3)nc2n1CC(=O)Nc1ccc(Cl)c(C(F)(F)F)c1` [Compound 197], for which the concentration for half-maximal inhibition (IC50) in assay [1] amounted to 0.028 µM; in assay [2], 0.0038 µM.
